The nature of the data set: Acid dissociation constant (pKa) by potentiometric titration (JIS K 0070:1992). The source says: The acid dissociation constant (pKa) is a parameter indicating the degree of dissociation of an acid. When the ionization constant of an acid is Ka, the acid dissociation constant is defined by pKa=−log10 Ka.

A word on the pKa: it is the negative logarithm of the acid dissociation constant.

In turn, `O=C(O)c1ccc(O)cc1` [4-hydroxybenzoic acid] yielded a pKa of no more than 5.

`O=C(O)CC(O)(CC(=O)O)C(=O)O` [Citric acid, citric acid]: the pKa was no more than 5.

In turn, `O=P(O)(O)c1ccccc1` [Phenylphosphonic acid] gave a pKa of no more than 5.

Consider `O=C(O)c1cccc(C(=O)O)c1` [Isophthalic acid, isophthalic acid], for which the pKa was no more than 5.

Source of the values: patent publication US20260212886A1, “MAGNETIC RECORDING MEDIUM AND CARTRIDGE” (Sony Group Corporation, priority 2023, published 2026).
